As a reminder, the pKa is the negative logarithm of the acid dissociation constant.

The compound `Cc1cc(C)nc(N2CCC3(CCCC(=O)N3Cc3cccc4[nH]ccc34)CC2)n1` displayed a pKa of 4.4.

`Nc1n[nH]c2cc(Br)ccc12` had a pKa of 2.9.

The compound `Cc1[nH]c2ccccc2c1CC[NH2+]Cc1ccc(CCC(=O)N=O)cc1` yielded a pKa of 8.6.

`O=C(Nc1ccccc1C(=O)[O-])c1cccc(Oc2ccccc2)c1`: the pKa was found to be 3.3.

Regarding `N#Cc1c(-c2ccc(Cl)cc2)nc(SCC(=O)Nc2ccc(Cl)cc2)[nH]c1=O`, the pKa came to 3.7.

The compound `COc1ccc2c(c1)C[NH+](C)CCS2` returned a pKa of 7.5.

Compound `C1=C(c2cccc3ccccc23)N2CC[NH+]=C2c2ccccc21` registered a pKa of 10.3.

For `CN1C(=O)Cn2cc(C(=O)NCc3ccc(Cl)cc3)c(=O)c3cc(C[NH+]4CCOCC4)cc1c32`, the pKa came out at 6.2.

`O=C(CSc1nccn1C1CCCC1)Nc1ccc(C(F)(F)F)cc1` displayed a pKa of 5.1.

`O=C([O-])COc1ccc2c(c1)Cc1ccccc1-2` returned a pKa of 3.

Regarding `O=C(Nc1nccs1)C(CC1CCCC1)c1ccc(Cl)cc1` (configuration not stated), the pKa turned out to be 10.5.

`Cc1nc(C(=O)[O-])ccc1N(C)Cc1cccc(Cl)c1` had a pKa of 4.45.

Turning to `COc1cccc2[nH]cc(-c3ccnc(N)n3)c12`, the pKa is 5.52.

`Cc1nc(-c2ccc(OCC(C)C)c(C#N)c2)sc1C(=O)[O-]` registered a pKa of 4.

The compound `O=C1CCCC2(CCN(c3cnc4ccccc4n3)CC2)N1Cc1c[nH]c2ccccc12` gave a pKa of 3.3.

`O=C1CN(c2ccccc2)C(=O)N1` returned a pKa of 8.3.

Compound `Cc1ccc(C)n1-c1ccc(C(=O)[O-])c(O)c1` registered a pKa of 2.3.

In the case of `O=C(Nc1ccc(F)c(Cl)c1)C1CCN(c2ncccn2)CC1`, the pKa was found to be 3.8.

As to `c1ccc(Nc2ncc3ccccc3n2)cc1`, the pKa stood at 3.6.

As to `COc1ccc(N)c2ccccc12`, the pKa amounted to 4.9.

`Cc1ccc(NC(=O)c2ccccc2)cc1Nc1nccc(-c2cccnc2)n1` gave a pKa of 3.9.

`COc1ccc2[nH]cc(CN3CCCC4(CCN(c5nc(C)cc(C)n5)CC4)C3=O)c2c1` displayed a pKa of 4.65.

Compound `O=C1N(Cc2c[nH]c3ccccc23)CCCC12CCN(c1ncccn1)CC2` returned a pKa of 3.8.

Take `c1ccc(N2CC[NH2+]CC2)cc1`: the pKa is 9.

In turn, `COc1ccc(N2CCOCC2)c2sc(NC(=O)N3CCC(C)(O)CC3)nc12` had a pKa of 9.4.

Regarding `O=C(Cc1ccccc1)N1CCCC12CCN(c1cnc3ccccc3n1)CC2`, the pKa is 3.6.

As for `N#Cc1ccc2[nH]cc(-c3ccnc(N)n3)c2c1`, the pKa is 5.3.

Consider `CCc1ncnc(NC(CC)c2ccc(Oc3ccc(F)cc3)cc2)c1Br` (configuration not stated), for which the pKa amounted to 4.3.

`O=c1[nH]c2cc(C(F)(F)F)ccc2n1Cc1cc(Cl)ccc1O` gave a pKa of 9.75.

As for `O=C(Nc1ccc(Cl)cc1)NS(=O)(=O)c1ccc(Cl)cc1`, the pKa came out at 3.4.

For `CCc1ccccc1N(CC)C(=O)C1CCN(c2ncnc3c2nc2n3CCCCC2)CC1`, the pKa is 3.9.

`Cc1csc2ccc3[nH]c4c(c3c12)C[NH+](C)CC4` showed a pKa of 8.6.

As for `N#Cc1ccc2ccn(-c3ccnc(N)n3)c2c1`, the pKa worked out at 4.6.

`Fc1ccccc1C1=Cc2ccccc2C2=[NH+]CCN12` yielded a pKa of 10.2.

Compound `CS(=O)(=O)c1ccc(-c2cnc(N)c(-c3ccc(C(F)(F)F)cc3)c2)cc1` yielded a pKa of 4.9.

For `CC(=O)Nc1ccc(Nc2ncnc3c2c(-c2ccccc2)cn3-c2ccccc2)cc1`, the pKa turned out to be 3.9.

The compound `Cc1cc(C)nc(N2CCC3(CCCN(Cc4nn(C)cc4-c4ccccc4)C3=O)CC2)n1` displayed a pKa of 4.75.

`COC(=O)/C=C/C(=O)[O-]` came in with a pKa of 2.9.

`CCS(=O)(=O)c1ccc(CC(=O)Nc2nc(-c3ccccc3)c(C(=O)c3ccccc3)s2)cc1`: the pKa was 7.9.

Regarding `Nc1nc(-c2ccccc2)cc2ccccc12`, the pKa amounted to 6.9.

In turn, `Nc1nc(-c2ccccn2)nc(N)c1Cc1ccc(Cl)cc1Cl` came in with a pKa of 5.6.

As for `Clc1ccc2c(c1)[NH+]=C(N1CCCCC1)c1ccccc1N2`, the pKa came out at 7.2.

The compound `O=C1N(Cc2c[nH]c3ccccc23)CCCC12CCN(c1cnc3ccccc3n1)CC2` yielded a pKa of 3.9.

Consider `C1=C(c2ccc3ccccc3c2)N2CC[NH+]=C2c2ccccc21`, for which the pKa was 10.2.

As for `O=C(Nc1nnc(-c2ccc(F)cc2)o1)c1ccc(Cl)s1`, the pKa came to 5.8.

Consider `CC(=O)n1cc(C2=C([O-])CC(C)(C)CC2=O)c2ccccc21`, for which the pKa came out at 5.2.

On to `Cc1cc(C)nc(N2CCC3(CCCN(Cc4cn(C)c5ccccc45)C3=O)CC2)n1`, for which the pKa stood at 4.7.

`Nc1ncnc2ccc(-c3cccc(F)c3)nc12` registered a pKa of 4.7.

Compound `O=C(NO)C1c2ccccc2Oc2ccccc21` returned a pKa of 8.4.

The compound `O=c1cc(CSc2cccc(F)c2F)nc2cc[nH]n12` had a pKa of 7.35.

For `Nc1cccc2c1C(=O)N(C1CCC(=O)NC1=O)C2=O` (configuration not stated), the pKa stood at 10.8.

`N#Cc1csc(NC(=O)Nc2ccc(Cl)c(Cl)c2)n1` had a pKa of 8.3.

Regarding `COc1ccc(-c2cnc3c(-c4cccc5ncccc45)cnn3c2)cc1`, the pKa was 4.4.

The compound `Cc1cc(C)c2cc(C(=O)NC3CC[NH+](C)CC3)[nH]c2c1` came in with a pKa of 8.5.

For `NC(=O)c1cccc(-c2cc(Nc3ccc(OC(F)(F)F)cc3)ncn2)c1`, the pKa was found to be 4.

Compound `COc1ccc(CNC(=O)c2c(C)nc3ccccn23)cc1` registered a pKa of 5.

In turn, `COc1ccc(C2=C([O-])c3ccccc3C2=O)cc1` displayed a pKa of 4.1.

Turning to `Cc1ccc(OC(C)(C)C(=O)N[C@@H](C)[C@@H](Cc2ccc(OCCF)cc2)c2cccc(C#N)c2)nc1`, the pKa was determined as 2.7.

With `c1ccc(-c2nc3n(c2-c2ccccc2)CCS3)cc1`, the pKa is 4.8.

`O=S(=O)(Nc1cc(F)ccc1F)c1ccc2[nH]c3c(c2c1)CCCC3` displayed a pKa of 7.3.

`O=C([O-])c1ccc(NCc2cccc(Oc3ccccc3)c2)cn1`: the pKa turned out to be 4.45.

With `O=C(Nc1cccc(Cl)c1)c1ccccc1O`, the pKa worked out at 7.2.

As for `Cc1nc(C#Cc2ccnc(Cl)c2)c(C)n1-c1ccc(F)cc1`, the pKa turned out to be 4.35.

As for `O=S(=O)(c1ccccc1)n1cc(-c2cccc3nccn23)c2ccccc21`, the pKa stood at 6.4.

`CC(C)Oc1ccc(Cc2ccc(NC3=[NH+]CCN3)cc2)cc1`: the pKa came to 10.5.

`O=C(NCc1ccc(Cl)cc1)c1cn2c(CCO)cc3cc(C[NH+]4CCOCC4)cc(c1=O)c32` displayed a pKa of 5.9.

Regarding `COC(=O)Cn1c(C[NH+]2CCC(Cc3ccccc3)CC2)nc2c1c(=O)n(C)c(=O)n2C`, the pKa was 6.

Compound `O=C([O-])CSc1ncnc2cc(-c3ccc(Br)cc3)sc12` returned a pKa of 3.5.

On to `COc1ccc(NS(=O)(=O)c2ccc(-n3cccn3)cc2)cc1OC`, for which the pKa was found to be 8.3.

The compound `Fc1cccc(-c2c[nH]c3ncccc23)c1` yielded a pKa of 4.1.

With `CCc1cc(Br)ccc1S(=O)(=O)NCc1ccccc1`, the pKa was found to be 10.6.

Regarding `N#Cc1c(-c2ccccc2)nc(SCc2ccccc2)[nH]c1=O`, the pKa worked out at 4.5.

`O=C(NO)C1c2ccccc2-c2ccccc21` gave a pKa of 8.7.

As to `O=c1[nH]c2ccccc2c(=O)n1CCCl`, the pKa was 10.

`Cc1ccc2c(c1)C(=O)C(=O)N2` yielded a pKa of 9.8.

In the case of `Cc1ccc2nc(N)ccc2c1`, the pKa turned out to be 7.6.

In turn, `CC(C(=O)[O-])c1ccc2c(c1)Cc1ccccc1-2` (configuration not stated) gave a pKa of 4.3.

In the case of `O=C1CCN(Cc2ccccc2)C(=O)N1`, the pKa is 11.7.

For `COc1ccc2nccc(-n3cc4c(n3)CCC(NC(=O)c3ccc5c(c3)NC(=O)CS5)C4)c2n1` (configuration not stated), the pKa was found to be 3.8.

As for `CCc1ccc(/C=C2/SC(=S)[N-]C2=O)cc1`, the pKa is 5.8.

Consider `C1=CN2CC(c3ccccc3)[NH+]=C2S1` (configuration not stated), for which the pKa amounted to 8.7.

As for `COc1cc(Nc2ccccc2C(=O)[O-])cc(OC)c1`, the pKa is 4.

`CNC(=O)c1ccc(Oc2ccc3c(c2)CC[NH+](C2CCC2)CC3)nc1` gave a pKa of 8.6.

For `Cc1cc(C(=O)C[NH+]2CCCC2)c(C)n1-c1ccc(F)cc1`, the pKa worked out at 9.

Compound `O=c1[nH]c2cc(-c3ccc(F)cc3)ccc2cc1[O-]` displayed a pKa of 8.1.

Consider `CC(c1cc2ccccc2s1)N(O)C(N)=O` (configuration not stated), for which the pKa stood at 10.2.

In turn, `COc1ccc(Nc2ccc3ccccc3n2)cc1` showed a pKa of 6.5.

Take `Nc1nccc(N2CCc3ccc(Br)cc32)n1`: the pKa worked out at 6.9.

Consider `CC(C)Nc1nc(Nc2ccc(C(N)=O)cc2)c2sccc2n1`, for which the pKa was 6.3.

For `CC(C(=O)[O-])c1ccc2c(c1)C(=O)c1ccccc1CS2` (configuration not stated), the pKa stood at 4.1.

In turn, `COc1cccc(-c2cccc(CCC3(C)CC(=O)N(C)C(N)=[NH+]3)c2)c1` (configuration not stated) came in with a pKa of 9.4.

In turn, `C[NH+](C)CCSc1nc2ccccc2cc1-c1ccccc1` displayed a pKa of 8.4.

The compound `Cc1cc(C)nc(N2CCC3(CCCN(Cc4ccccc4-c4nc(C)no4)C3=O)CC2)n1` had a pKa of 4.8.

`Ic1cccc(-c2nn[n-]n2)c1` showed a pKa of 3.7.

For `COc1ccc(/C=C/C(=O)N2CCN(c3ccccn3)CC2)cc1`, the pKa is 5.3.

The compound `O=C(/C=C/c1ccc(Br)cc1)N1CC[NH+](Cc2ccccc2)CC1` displayed a pKa of 6.1.

Consider `COc1cccc(-c2nnc3n(Cc4ccccc4Cl)c(=O)c4ccccc4n23)c1O`, for which the pKa was found to be 8.4.

The compound `N#Cc1cccc(Nc2ccccc2C(=O)[O-])c1` came in with a pKa of 3.9.

On to `c1ccc(-c2cnc3c(-c4ccnc5ccccc45)cnn3c2)cc1`, for which the pKa stood at 4.9.

For `COc1ccc(-c2nc(Nc3ccc(F)cc3F)c3ccccc3n2)cc1OC`, the pKa amounted to 5.2.

`O=Cc1cc(Br)cc(Br)c1O` returned a pKa of 5.3.

`CCC1(c2ccccc2)C(=O)NC(=O)N(C)C1=O` (configuration not stated) registered a pKa of 7.6.

In turn, `O=C([O-])c1ccccc1Nc1cc(F)cc(C(F)(F)F)c1` came in with a pKa of 3.9.

Compound `O=C1CCCC2(CCN(c3cnc4ccccc4n3)CC2)N1Cc1ccccc1` returned a pKa of 3.3.

In turn, `C1=C(c2ccccc2)N2CC[NH+]=C2c2ccccc21` gave a pKa of 10.3.

The compound `Cc1csc2ncnc(NCCc3ccc(Cl)cc3)c12` showed a pKa of 3.9.

`Cc1ccc(NC(=O)c2cccc(C(C)(C)C#N)c2)cc1Nc1ccc2ncn(C)c(=O)c2c1` showed a pKa of 3.6.
